Experiment [1] deals with T1, FPRL1 (Homo sapiens, UniProt P25090).
T1 construct: expressed in transfected cells; host or cells: RBL-2H3 (rat basophilic leukemia) cells, G418-selected
T1 sequence (P25090 1-351): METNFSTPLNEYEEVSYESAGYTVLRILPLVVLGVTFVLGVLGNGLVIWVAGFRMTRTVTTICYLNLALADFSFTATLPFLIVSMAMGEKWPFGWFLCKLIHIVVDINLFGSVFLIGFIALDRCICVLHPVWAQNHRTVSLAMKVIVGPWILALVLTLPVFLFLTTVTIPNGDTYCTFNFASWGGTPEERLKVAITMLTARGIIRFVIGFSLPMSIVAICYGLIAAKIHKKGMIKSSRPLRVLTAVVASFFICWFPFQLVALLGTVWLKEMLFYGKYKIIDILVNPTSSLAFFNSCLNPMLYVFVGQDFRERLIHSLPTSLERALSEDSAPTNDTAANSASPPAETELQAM
Description: Displacement of 125I-labeled WKYMVm binding to FPRL1 (FPRL1-expressing RBL-2H3 cells). Particulars: FIG. 2B. How it is done: From the finding that some of the peptides (WKGMVm (SEQ ID NO: 1), WKRMVm (SEQ ID NO: 11), D-Met^6 substituted peptides) could not induce a cytosolic calcium increase, it was checked whether the peptides can bind to FPR or not. Displacement of ^125I-labeled WKYMVm binding to FPR or FPRL1 by the peptides was monitored. FPR-expressing RBL-2H3 cells were incubated with [^125I] WKYMVm in the absence or presence of increasing amounts of unlabeled WKYMVm or the peptides of SEQ ID NOs: 1 to 24.
A ligand binding analysis was performed as modified from the previous report (16). The radioiodinated WKYMVm (^125I-labeled) was purchased from NEN Lifesciences (Boston, Mass.). Briefly, FPR- or FPRL1-expressing RBL-2H3 cells were seeded into 1×10^5 cells per well of a 24-well plate and cultured overnight. After blocking the cells with a blocking buffer (33 mM HEPES, pH 7.5, 0.1% BSA in RPMI) for 2 hr, a single concentration of ^125I-labeled WKYMVm was added to cells with a binding buffer (PBS containing 0.1% BSA) in the absence or presence of 50 μM unlabelled peptides and incubated for 3 hr at 4° C. with continuous shaking. Then the samples were washed 5 times with ice-cold binding buffer, and 200 μl of lysis buffer (20 mM Tris, pH 7.5, 1% Triton X-100) was added to each well. After 20 min of lysis at room temperature, the lysates were collected. Bound ^125I-labeled WKYMVm was measured for radioactivity for a γ-ray counter.

The target in experiment [2] is T1, FPRL1. Kind of experiment: [Ca2+]i increase in FPRL1-expressing RBL-2H3 cells (fura-2). It is filed as cell-based.
For experiment [3], the target named is T1, FPRL1. Kind of experiment: Akt phosphorylation in FPRL1-expressing RBL-2H3 cells (immunoblot). Particulars: 10 μM peptides 5 min (WKYMVm time course 1 μM). Type of experiment: cell-based. On the procedure: It is well known that activation of chemoattractant receptors induces Akt activation via PI3K (19). Stimulation of cells with the peptides, electrophoresis and immunoblot analysis were performed according to the same method as in Example 5.
FPR- or FPRL1-expressing RBL-2H3 cells were stimulated with 1 μM WKYMVm for various periods of time (FIG. 4A). Two cells were preincubated with a vehicle or 100 ng/ml of PTX (24 hr), 50 μM of LY294002 (15 min), 5 μM of GFX (15 min), 10 μM BAPTA/AM (60min), or 50 μM PD98059 (60 min) prior to treatment with 1 μM of WKYMVm (FIG. 4B). FPR- and FPRL1-expressing RBL2H3 cells were stimulated with 10 μM of WKYMVm and the present peptides for 2 min or 5 min, respectively (FIG. 4C). Each sample (30 μg of protein) was subjected to 10% SDS-PAGE and phosphorylated Akt was determined by immunoblot analysis with an anti-phospho-Akt antibody. A western blot analysis with an anti-Akt antibody was performed to confirm that the same amounts of samples were used for the experiments. The results are shown FIGS. 4A to 4C. Results of FIGS. 4A to 4C are the representative of 3 independent experiments.

In another experiment the test system is CT26, colon carcinoma. Kind of experiment: Tumor growth in CT26-injected Balb/c mice. Type of experiment: in vivo. To be noted: FIGS. 9A and 9B. On the procedure:
CT26, EL4 were maintained at 37° C. in a humidified 5% CO2 atmosphere in RPMA1640 medium supplemented with 20% (vol/vol) heat-inactivated fetal bovine serum. For animal experiments, the cells were passaged two to five times after re-growth from frozen stocks. Log phase CT26 cells were detached from tissue culture flasks with 0.25% trypsin and 0.03% EDTA. CT26 and EL4 were washed and resuspended in PBS immediately before injection.
In order to assess the antitumor effect of immuno-modulating peptide, Trp-Arg-Tyr-Met-Val-D-Met-CONH2, (WRYMVm; (SEQ ID NO: 4)), CT26, colon carcinoma was tested in Balb/c mice model. Tumor mass was measured in size every two days after 6 days from tumor cell inoculation.
To find the effective tumor-suppressing dose of WRYMVm, 0.1 μg/mouse, 0.25 μg/mouse, and 1 μg/mouse of WRYMVm were administered to CT26/Balb/c model. […] A similar phenomenon is easily found in chemotactic migration of leukocytes. In view of the fact that FPRL1, which is a target receptor for WRYMVm, is related to the chemotactic migration event, it is concluded that WRYMVm-induced antitumor effect might be derived from leukocyte infiltration event. Therefore, it is quite necessary to reveal the direct relationship between the WRYMVm-induced antitumor effect and the leukocyte infiltration event.

Where a SMILES comes first, the peptide text is derived from it. [ ]: non-standard residue; d: D form.

As to `CSCC[C@H](NC(=O)CNC(=O)[C@H](CCCCN)NC(=O)[C@@H](N)Cc1c[nH]c2ccccc12)C(=O)N[C@H](C(=O)N[C@H](CCSC)C(N)=O)C(C)C` [WKGMVm-NH2, Trp-Lys-Gly-Met-Val-D-Met-NH2] (H-WKGMV[dM]-NH2; N-terminus assumed), the “inhibition of [^125I] WKYMVm binding” value on FPRL1 [1] was “inhibited binding of [^125I] WKYMVm in a concentration-dependent manner”. Further, on FPRL1 [2], the “[Ca^2+]i increasing activity” value is “showed [Ca^2+]i-increasing activity in FPRL1 cells, with a little lower affinity to FPRL1”.

Consider `CSCC[C@H](NC(=O)[C@H](Cc1ccc(O)cc1)NC(=O)[C@H](CCCCN)NC(=O)[C@@H](N)Cc1c[nH]c2ccccc12)C(=O)N[C@H](C(=O)N[C@H](CCSC)C(N)=O)C(C)C` [WKYMVm-NH2, Trp-Lys-Tyr-Met-Val-D-Met-NH2, reference compound], for which the “Akt phosphorylation” value at FPRL1 [3] was “stimulated Akt phosphorylation”. In addition, the “inhibition of [^125I] WKYMVm binding” value at FPRL1 [1] is “inhibited binding of [^125I] WKYMVm in a concentration-dependent manner”. Moreover, the “concentration showing maximal [Ca^2+]i increase activity” value at FPRL1 [2] (data not shown) stood at 10 nM. The “EC50 (nM), intracellular calcium increase” value at FPRL1 [2] (fura-2 loaded) is “inactive”.

As for `CSCC[C@H](NC(=O)[C@H](CCCNC(=N)N)NC(=O)[C@H](CCCCN)NC(=O)[C@@H](N)Cc1c[nH]c2ccccc12)C(=O)N[C@H](C(=O)N[C@H](CCSC)C(N)=O)C(C)C` [WKRMVm-NH2, Trp-Lys-Arg-Met-Val-D-Met-NH2] (H-WKRMV[dM]-NH2; N-terminus assumed), the “tumor growth in CT26-injected mice (figure legend)” value in the experiment on CT26, colon carcinoma was “attenuates tumor growth”. At FPRL1 [1], the “inhibition of [^125I] WKYMVm binding” value was “inhibited binding of [^125I] WKYMVm in a concentration-dependent manner”.

These data come from patent publication US7517857B2, “Immune-modulating peptide” (POSCO, priority 2002, dated 2009).
